# Source: US12351556B2, “Pyridin-2(1H)one derivatives, their preparation and their use for the treatment of pain” (INSTITUT NATIONAL DE LA SANTE ET DE LA RECHERCHE MEDICALE …, priority 2019, dated 2025)
# How the values were obtained:
# JNK1 = JNK1 (Homo sapiens (Human), UniProt P45983); assay: ICKP protein kinase panel screening; format: biochemical; settings: duplicate assays, read-out: mean % residual activity
# Experimental: (§1) FIG. 3 illustrates the human kinome. Compound 69 was evaluated at the International Center For Kinase Profiling (ICKP, Dundee, Scotland) toward a panel of 50 protein kinases that provide a representative sampling of the human kinome. The results were expressed as the mean percentage of residual activity at 10 μM concentration (duplicate assays). Small disks: ≥65%, larger disk: 19%. The black square indicates the kinome region containing protein kinases evaluated in a second screening (FIG. 4, Table 4). The tree was generated using the Kinome Render software, and the illustration reproduced courtesy of Cell Signaling Technology, Inc. (www.cellsignal.com) Chartier et al PeerJ 2013, 1:e126.
# (§2) FIG. 4 illustrates the studies carried out for compounds 67 and 69. Compounds 67 and 69 (FIG. 4B) were evaluated at the International Center For Kinase Profiling (ICKP, Dundee, Scotland) toward a panel of 13 protein kinases. The results (FIG. 4A) were expressed as the mean percentage of residual activity at 1 μM concentration (duplicate assays). Small disks: ≥90%, larger disk: 59%, for both compounds. The tree was generated using the Kinome Render software, and the illustration reproduced courtesy of Cell Signaling Technology, Inc. (www.cellsignal.com) Chartier et al PeerJ 2013, 1:e126.
# (§3) Results are expressed as the mean percentage of residual activity at 10 μM (Table 3) or 1 μM (Table 4). They are illustrated on FIGS. 3 and 4.
# (§4) Studies were undertaken to identify the possible biological target(s) of compound 69. The activation in neurons of PK such as PKCγ, ERK or p38 MAPK can contribute to pain hypersensitivity. Therefore, it was decided to screen compound 69 toward a panel of 50 PKs that provide a representative sampling of the human kinome (FIG. 3, Table 3) (Biochem. J. 2007, 408, 297-315). In this panel, p38α MAPK was identified as the privileged target, with 19% of kinase residual activity at 10 μM compound concentration.
# (§5) The selectivity of compound 69 was evaluated at 1 μM toward another panel containing all four p38 MAPK isoforms, ERK1, ERK2 as well as other protein kinases close to p38α MAPK in the kinome phylogenetic tree (FIG. 4, Table 4). […] Its IC50 toward p38α MAPK was determined, showing a value in the micromolar range (IC50=3.0±0.1 μM).
# p38a MAPK = p38a MAPK (Homo sapiens (Human), UniProt Q16539); assay: ICKP protein kinase panel screening; format: biochemical; settings: duplicate assays, read-out: mean % residual activity
# Experimental: as §1, §2, §3, §4, §5
# PKBa = PKBa (Homo sapiens (Human), UniProt P31749); assay: ICKP protein kinase panel screening; format: biochemical; settings: duplicate assays, read-out: mean % residual activity
# Experimental: as §1, §3, §4
# PKCa = PKCa (Homo sapiens (Human), UniProt P17252); assay: ICKP protein kinase panel screening; format: biochemical; settings: duplicate assays, read-out: mean % residual activity
# Experimental: as §1, §3, §4
# SGK1 = SGK1 (Homo sapiens (Human), UniProt O00141); assay: ICKP protein kinase panel screening; format: biochemical; settings: duplicate assays, read-out: mean % residual activity
# Experimental: as §1, §3, §4
# TTK = TTK (Homo sapiens (Human), UniProt P33981); assay: ICKP protein kinase panel screening; format: biochemical; settings: duplicate assays, read-out: mean % residual activity
# Experimental: as §1, §3, §4
# AMPK (hum) = assay: ICKP protein kinase panel screening; format: biochemical, human; settings: 10 μM, duplicate assays
# Experimental: as §1, §3, §4
# CK2 = assay: ICKP protein kinase panel screening; format: biochemical, human; settings: 10 μM, duplicate assays
# Experimental: as §1, §3, §4
# ROCK 2 = assay: ICKP protein kinase panel screening; format: biochemical, human; settings: 10 μM, duplicate assays
# Experimental: as §1, §3, §4
# CDK2-Cyclin A = CDK2-Cyclin A (Homo sapiens (Human), UniProt P24941); assay: ICKP protein kinase panel screening; format: biochemical; settings: duplicate assays, read-out: mean % residual activity
# Experimental: as §2, §3, §5
# CDK5 = CDK5 (Homo sapiens (Human), UniProt Q00535); assay: ICKP protein kinase panel screening; format: biochemical; settings: duplicate assays, read-out: mean % residual activity
# Experimental: as §2, §3, §5
# ERK1 = ERK1 (Homo sapiens (Human), UniProt P27361); assay: ICKP protein kinase panel screening; format: biochemical; settings: duplicate assays, read-out: mean % residual activity
# Experimental: as §2, §3, §5
# ERK2 = ERK2 (Homo sapiens (Human), UniProt P28482); assay: ICKP protein kinase panel screening; format: biochemical; settings: duplicate assays, read-out: mean % residual activity
# Experimental: as §2, §3, §5
# ERK5 = ERK5 (Homo sapiens (Human), UniProt Q13164); assay: ICKP protein kinase panel screening; format: biochemical; settings: duplicate assays, read-out: mean % residual activity
# Experimental: as §2, §3, §5
# ERK8 = ERK8 (Homo sapiens (Human), UniProt Q8TD08); assay: ICKP protein kinase panel screening; format: biochemical; settings: duplicate assays, read-out: mean % residual activity
# Experimental: as §2, §3, §5
# JNK2 = JNK2 (Homo sapiens (Human), UniProt P45984); assay: ICKP protein kinase panel screening; format: biochemical; settings: duplicate assays, read-out: mean % residual activity
# Experimental: as §2, §3, §5
# JNK3 = JNK3 (Homo sapiens (Human), UniProt P53779); assay: ICKP protein kinase panel screening; format: biochemical; settings: duplicate assays, read-out: mean % residual activity
# Experimental: as §2, §3, §5
# p38b MAPK = p38b MAPK (Homo sapiens (Human), UniProt Q15759); assay: ICKP protein kinase panel screening; format: biochemical; settings: duplicate assays, read-out: mean % residual activity
# Experimental: as §2, §3, §5
# p38d MAPK = p38d MAPK (Homo sapiens (Human), UniProt O15264); assay: ICKP protein kinase panel screening; format: biochemical; settings: duplicate assays, read-out: mean % residual activity
# Experimental: as §2, §3, §5
# p38g MAPK = p38g MAPK (Homo sapiens (Human), UniProt P53778); assay: ICKP protein kinase panel screening; format: biochemical; settings: duplicate assays, read-out: mean % residual activity
# Experimental: as §2, §3, §5
# [1] = test system: panel of 50 protein kinases; assay: ICKP screening, whole panel of 50 protein kinases; format: biochemical, human; settings: 10 μM
# Experimental: as §1, §3, §4
# p38a MAPK, sequence (Q16539 whole entry): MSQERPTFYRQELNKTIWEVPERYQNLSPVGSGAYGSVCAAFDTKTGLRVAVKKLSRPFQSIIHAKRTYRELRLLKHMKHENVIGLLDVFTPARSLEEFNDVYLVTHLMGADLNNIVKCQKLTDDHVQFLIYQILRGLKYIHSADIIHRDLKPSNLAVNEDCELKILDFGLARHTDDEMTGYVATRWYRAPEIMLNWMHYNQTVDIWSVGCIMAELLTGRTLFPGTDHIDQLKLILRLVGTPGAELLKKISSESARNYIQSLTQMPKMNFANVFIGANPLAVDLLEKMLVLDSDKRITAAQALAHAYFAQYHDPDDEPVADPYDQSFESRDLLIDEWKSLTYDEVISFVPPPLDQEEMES
# JNK1, sequence (P45983 whole entry): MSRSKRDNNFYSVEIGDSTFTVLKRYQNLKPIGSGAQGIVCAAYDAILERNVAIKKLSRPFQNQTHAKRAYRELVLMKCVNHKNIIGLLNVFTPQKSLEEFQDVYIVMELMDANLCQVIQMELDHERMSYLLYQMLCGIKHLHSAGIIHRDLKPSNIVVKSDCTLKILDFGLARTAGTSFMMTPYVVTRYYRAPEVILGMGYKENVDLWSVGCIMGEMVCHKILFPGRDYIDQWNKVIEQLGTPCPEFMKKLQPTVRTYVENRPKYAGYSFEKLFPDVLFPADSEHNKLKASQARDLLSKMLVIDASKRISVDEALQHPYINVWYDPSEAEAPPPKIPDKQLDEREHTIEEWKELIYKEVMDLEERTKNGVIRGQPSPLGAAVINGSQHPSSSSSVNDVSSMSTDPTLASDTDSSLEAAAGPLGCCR
# PKBa, sequence (P31749 whole entry): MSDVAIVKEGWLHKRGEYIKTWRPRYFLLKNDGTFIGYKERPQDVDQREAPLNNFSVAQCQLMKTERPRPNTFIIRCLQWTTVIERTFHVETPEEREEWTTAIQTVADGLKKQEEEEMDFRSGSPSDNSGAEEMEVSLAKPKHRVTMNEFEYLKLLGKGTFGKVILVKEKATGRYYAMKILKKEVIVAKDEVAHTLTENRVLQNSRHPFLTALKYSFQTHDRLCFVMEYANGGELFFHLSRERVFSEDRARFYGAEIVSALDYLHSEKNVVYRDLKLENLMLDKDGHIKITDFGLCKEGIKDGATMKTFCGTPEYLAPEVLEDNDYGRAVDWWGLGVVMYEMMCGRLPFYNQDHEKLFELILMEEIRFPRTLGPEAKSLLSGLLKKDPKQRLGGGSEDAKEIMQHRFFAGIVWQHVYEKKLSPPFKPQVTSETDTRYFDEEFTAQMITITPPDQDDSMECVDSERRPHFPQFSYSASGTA
# SGK1, sequence (O00141 whole entry): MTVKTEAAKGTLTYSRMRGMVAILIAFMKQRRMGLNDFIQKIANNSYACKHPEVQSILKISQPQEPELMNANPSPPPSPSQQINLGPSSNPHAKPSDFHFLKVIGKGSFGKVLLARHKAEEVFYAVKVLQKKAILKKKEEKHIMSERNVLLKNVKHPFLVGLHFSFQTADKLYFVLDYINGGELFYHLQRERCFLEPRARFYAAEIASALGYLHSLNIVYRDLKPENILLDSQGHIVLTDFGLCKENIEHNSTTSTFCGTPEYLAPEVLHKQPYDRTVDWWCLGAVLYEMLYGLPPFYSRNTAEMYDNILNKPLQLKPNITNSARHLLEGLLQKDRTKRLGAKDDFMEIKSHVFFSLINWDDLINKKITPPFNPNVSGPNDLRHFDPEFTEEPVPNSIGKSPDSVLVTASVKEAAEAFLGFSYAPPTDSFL
# p38b MAPK, sequence (Q15759 whole entry): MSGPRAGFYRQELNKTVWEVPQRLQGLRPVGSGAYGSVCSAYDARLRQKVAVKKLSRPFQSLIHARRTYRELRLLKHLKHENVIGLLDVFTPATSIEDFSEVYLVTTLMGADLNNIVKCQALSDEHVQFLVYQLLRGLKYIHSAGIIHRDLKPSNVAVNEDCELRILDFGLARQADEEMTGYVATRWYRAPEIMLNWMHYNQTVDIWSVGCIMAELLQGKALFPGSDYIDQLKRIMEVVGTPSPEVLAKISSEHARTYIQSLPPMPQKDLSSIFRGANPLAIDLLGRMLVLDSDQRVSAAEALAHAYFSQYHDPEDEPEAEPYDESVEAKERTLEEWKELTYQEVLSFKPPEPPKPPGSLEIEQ
# ERK8, sequence (Q8TD08 whole entry): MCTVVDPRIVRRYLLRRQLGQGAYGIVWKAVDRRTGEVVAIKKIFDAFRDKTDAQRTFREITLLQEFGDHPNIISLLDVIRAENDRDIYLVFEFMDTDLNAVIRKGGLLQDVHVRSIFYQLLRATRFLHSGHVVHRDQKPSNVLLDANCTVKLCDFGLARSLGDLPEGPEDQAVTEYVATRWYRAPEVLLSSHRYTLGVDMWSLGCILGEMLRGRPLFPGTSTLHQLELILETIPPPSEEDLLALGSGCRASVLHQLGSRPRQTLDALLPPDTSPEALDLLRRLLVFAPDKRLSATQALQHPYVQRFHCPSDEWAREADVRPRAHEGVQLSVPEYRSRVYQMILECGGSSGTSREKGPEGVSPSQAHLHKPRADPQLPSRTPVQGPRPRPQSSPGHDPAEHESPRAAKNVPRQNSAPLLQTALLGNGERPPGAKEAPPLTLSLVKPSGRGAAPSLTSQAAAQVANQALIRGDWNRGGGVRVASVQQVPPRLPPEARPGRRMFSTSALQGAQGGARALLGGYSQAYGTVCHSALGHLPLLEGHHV
# TTK, sequence (P33981 whole entry): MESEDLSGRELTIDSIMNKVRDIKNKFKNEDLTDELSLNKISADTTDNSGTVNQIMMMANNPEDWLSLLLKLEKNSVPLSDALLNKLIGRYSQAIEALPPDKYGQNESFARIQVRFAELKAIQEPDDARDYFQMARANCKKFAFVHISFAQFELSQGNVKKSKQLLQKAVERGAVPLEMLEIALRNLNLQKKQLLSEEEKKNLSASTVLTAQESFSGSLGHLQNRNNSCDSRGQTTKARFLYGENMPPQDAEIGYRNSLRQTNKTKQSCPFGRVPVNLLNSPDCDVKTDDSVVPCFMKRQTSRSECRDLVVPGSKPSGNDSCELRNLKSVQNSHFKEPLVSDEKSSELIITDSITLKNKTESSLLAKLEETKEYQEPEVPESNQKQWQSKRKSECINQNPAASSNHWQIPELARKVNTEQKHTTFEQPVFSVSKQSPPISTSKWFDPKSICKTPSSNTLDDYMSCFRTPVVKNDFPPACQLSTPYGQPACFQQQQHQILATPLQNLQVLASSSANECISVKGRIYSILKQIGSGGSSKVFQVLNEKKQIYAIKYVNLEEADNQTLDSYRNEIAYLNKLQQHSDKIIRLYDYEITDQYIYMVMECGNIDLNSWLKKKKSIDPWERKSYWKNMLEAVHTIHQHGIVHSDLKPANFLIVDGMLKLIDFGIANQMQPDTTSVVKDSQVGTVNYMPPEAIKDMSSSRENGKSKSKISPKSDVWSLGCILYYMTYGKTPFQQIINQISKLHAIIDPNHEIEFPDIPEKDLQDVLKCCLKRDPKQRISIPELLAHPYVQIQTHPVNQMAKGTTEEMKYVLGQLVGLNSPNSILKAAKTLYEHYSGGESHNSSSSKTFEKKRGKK
# ERK5, sequence (Q13164 whole entry): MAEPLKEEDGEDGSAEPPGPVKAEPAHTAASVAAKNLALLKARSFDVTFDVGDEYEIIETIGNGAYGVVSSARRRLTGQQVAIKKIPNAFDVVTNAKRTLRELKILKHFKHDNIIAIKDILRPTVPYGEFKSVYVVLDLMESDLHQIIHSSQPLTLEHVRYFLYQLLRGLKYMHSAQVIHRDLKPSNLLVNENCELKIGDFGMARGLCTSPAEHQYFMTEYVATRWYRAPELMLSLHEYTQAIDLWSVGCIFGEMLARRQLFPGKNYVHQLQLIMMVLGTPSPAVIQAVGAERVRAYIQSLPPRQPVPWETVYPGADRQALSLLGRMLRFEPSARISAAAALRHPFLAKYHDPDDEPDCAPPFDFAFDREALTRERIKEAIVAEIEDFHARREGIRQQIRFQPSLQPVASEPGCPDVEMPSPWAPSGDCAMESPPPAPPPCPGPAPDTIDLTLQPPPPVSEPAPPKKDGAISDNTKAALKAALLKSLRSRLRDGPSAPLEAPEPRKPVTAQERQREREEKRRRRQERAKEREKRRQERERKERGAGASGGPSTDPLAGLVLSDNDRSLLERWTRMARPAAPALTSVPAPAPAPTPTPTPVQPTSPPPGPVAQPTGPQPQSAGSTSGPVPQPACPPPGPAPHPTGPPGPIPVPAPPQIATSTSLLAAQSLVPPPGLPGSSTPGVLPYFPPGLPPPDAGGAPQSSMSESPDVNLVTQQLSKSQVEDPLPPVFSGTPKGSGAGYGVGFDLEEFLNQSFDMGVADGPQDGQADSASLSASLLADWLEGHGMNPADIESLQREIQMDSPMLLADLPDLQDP
smiles,measurement,setting,value
"O=c1[nH]cc(Nc2ccccc2)cc1-c1ccccc1Br [Compound 69, 3-(2-Bromophenyl)-5-(phenylamino)pyridin-2(1H)-one]",remaining activity at 1 µM,JNK1; 1 μM,115%
same,remaining activity at 10 µM,JNK1; 10 μM,102%
same,remaining activity at 1 µM,p38a MAPK; 1 μM,59%
same,remaining activity at 10 µM,p38a MAPK; 10 μM,19%
same,remaining activity at 10 µM,PKBa,107%
same,remaining activity at 10 µM,PKCa,116%
same,remaining activity at 10 µM,SGK1,89%
same,remaining activity at 10 µM,TTK,81%
same,mean % residual activity,AMPK (hum),95%
same,mean % residual activity,CK2,94%
same,mean % residual activity,ROCK 2,105%
same,remaining activity at 1 µM,CDK2-Cyclin A,119%
same,remaining activity at 1 µM,CDK5,103%
same,remaining activity at 1 µM,ERK1,120%
same,remaining activity at 1 µM,ERK2,109%
same,remaining activity at 1 µM,ERK5,101%
same,remaining activity at 1 µM,ERK8,144%
same,remaining activity at 1 µM,JNK2,103%
same,remaining activity at 1 µM,JNK3,115%
same,remaining activity at 1 µM,p38b MAPK,116%
same,remaining activity at 1 µM,p38d MAPK,112%
same,remaining activity at 1 µM,p38g MAPK,103%
same,"mean percentage of residual activity, other kinases of the panel (small disks)",[1]; all kinases except p38α MAPK,≥ 65%
same,selectivity for p38α MAPK over the other protein kinases,[1]; panel of 50 kinases,highly selective
